Measured values published in patent US8906865B2, “Treatment of inflammation and/or endotoxic shock” (ISIS Innovation Limited, priority 2007, dated 2014).
Non-standard residues stand in square brackets, D forms with d. Residues, ends and D or L forms follow the SMILES beside them. *: point of attachment. Sta = CC(C)C[C@H](N)[C@@H](O)CC(=O)O; Isovaleryl = CC(C)CC(=O)*; Cbz = O=C(OCc1ccccc1)*; CH2F = FC*

Columns and labels:
[1] = quoted in the discussion; cited from earlier work
[2] = system: Murine peritoneal macrophages (PMΦ); experiment: Macrophage activation assay: LPS/IFNγ-induced inflammatory cytokine expression (ELISA, Luminex); type: cell-based, mouse; conditions: for Percentage inhibition of LPS/IFNγ-induced inflammatory cytokine expression: RANTES / Percentage inhibition of LPS/IFNγ-induced inflammatory cytokine expression: TNFα: PMΦ, pre-treatment 1 h (0.1 pM-100 nM), then LPS 100 ng/ml + IFNγ 20 ng/ml 15 h, optimal dose (1 pM Chemerin and C15, 100 pM C13 and C19); for Anti-inflammatory activity in the MΦ activation assay: peptides 0.1 pM-100 nM; for Effect of protease inhibitor on chemerin-mediated suppression of MΦ activation (FIG. 1F): chemerin 1 pM + protease inhibitor 1 h, then LPS/IFNγ 15 h; for Optimal dose (maximal response) for suppression of LPS/IFNγ-induced cytokine expression: macrophage activation assay
Procedure: Murine peritoneal macrophages (PMθ, also referred to as PMΦ herein) were cultured under various conditions: Untreated; LPS (100 ng/ml) and IFNγ (20 ng/ml) for 15 h; Chemerin (1 pM) pre-treatment for 1 h then LPS/IFNγ for 15 h; Leupeptin (protease inhibitor; 15 mg/ml) and Chemerin (1 pM) for 1 h then LPS/IFNγ for 15 h; or Dexamethasone (positive control; 1 μM pre-treatment for 1 h then LPS/IFNγ for 15 h.
Murine PMθ were cultured under various conditions: Untreated, LPS (100 ng/ml) and IFNγ (20 ng/ml) for 15 h; Chemerin peptides (at a concentration of 1 pM-100 nM) pre-treatment for 1 h then LPS/IFNγ for 15 h. […] Experiments were performed with triplicate determinations for each treatment. Representative data from five independent experiments employing cells from different groups of C57B16/J mice are shown. p<0.01 **; p<0.001 *** relative to LPS/IFNγ treated samples.
With reference to Table 1, anti-inflammatory activity of chemerin-derived peptides—Murine PMΦ were cultured as described for FIG. 1B and were challenged with LPS (100 ng/ml) and IFNγ (20 ng/ml) for 15 h with/without pre-treatment with peptides (0.1 pM-100 nM) for 1 h. […] Peptide sequences are: C11 (P144-A154; […]), C13 (P144-S156; […]), C15 (A140-A154; […]), C19 (A138-S156; […]; Seq ID: No. 37), N19 (E23-K41; […] Seq ID No: 44) and M20 (K86-K105; […] Seq ID No. 45). Control peptides: scrambled C15 (C15-S; […]) and mutant C15 (C15-M; […]; F148A & F153A). Data represent mean percentage inhibition of cytokine production by classically activated macrophages from 4-8 independent experiments as determined by ELISA and Luminex assay.
1 ml 2% BioGEL polyacrylamide beads in sterile Phosphate-Buffered Saline (PBS) were injected intraperitoneally (ip) into C57B1/6J mice. Four days after ip BioGEL administration, mice were sacrificed by the CO, method according to Home Office guidelines. Peritoneal cavities were flushed with 10 ml sterile PBS-2 mM EDTA to harvest BioGEL-evoked/elicited cellular infiltrate. Suspensions of harvested cells were centrifuged at 1000×g for 5 mins at 4° C. The supernatants were discarded and cell pellets were resuspended in 6 mls OptiMEM medium supplemented with 2 mM Glutamine, 50 units/ml Penicillin and 50 μg/ml Streptomycin. Macrophages were quantified following incubation on ice for 5-10 mins with Turk's solution using a haemocytometer. Cell suspensions (2 mls; 1.5×10^6/well) were plated in six-well tissue culture plates (35 mm diameter: Costar, UK) and allowed to adhere for 2 hours at 37° C. in a humidified atmosphere containing 5% CO2, to isolate macrophage populations by adherence. This gave greater than 95% purity assessed by cytospinning, staining of cells with Methylene Blue and Eosin and counting based on cellular morphology. Nonadherent cells (mainly granulocytes) were discarded and wells were washed three times with sterile PBS to remove loosely adherent or dead cells. […] To determine PTX sensitivity and dependency upon proteolysis, cells were pre-incubated with PTX (200 ng/ml) or Leupeptin (15 μg/ml). Additional cells were treated with peptides alone. Supernatants were harvested and stored at −20° C. until use in Enzyme-Linked Immunosorbance Assays (ELISAs) and Luminex assays. Cells were lysed to allow extraction of total RNA by the TRIZOL method. Lysates were stored at −80° C. until RNA extraction following manufacturer's guidelines (Qiagen, RNeasy Mini Prep Kit).
RANTES, Tumour necrosis factor (TNFα) and CCL9 concentrations in cell supernatants were assessed by ELISA. IL-12 p40, IL-10, IL-1β, TNFα, MCP-1 (Monocyte chemoattractant protein-1) and IL-6 levels were determined by Luminex multiplex bead assay (Bio-rad 6 plex assay). Lower limits of detection for ELISAs were 0.1-0.5 ng/ml and 10-50 pg/ml for Luminex assays.

[3] = system: PMΦ (peritoneal macrophages); experiment: Macrophage chemotaxis assay (modified Boyden chamber); type: cell-based, mouse; conditions: for Macrophage chemotactic activity: migration over 4 h, compared with C140 and RANTES 25 ng/ml; for Concentration of maximal macrophage migration: tested 1 pM-100 nM
Procedure: PMθ (0.5×10^6) were allowed to migrate towards chemoattractant (Chemerin140 or Chemerin peptides) in the bottom well of a modified Boyden chamber over 4 h. Filters were fixed in 4% formalin, then migrated cell nuclei were stained with DAPI and visualised. Serum free media (SFM) were used as a negative control and the macrophage chemoattractant RANTES (25 ng/ml; 3 nM) as a positive control. The graphs indicate mean Migration Index (Chemoattractant % threshold area/SFM % threshold area)±SEM for each treatment group (n=5-6). p<0.001 ***; p<0.01 **; p<0.05 * relative to SFM treated wells.
PMθ were recruited following a 4 day peritoneal stimulation with BioGEL beads. Peritoneal cavities of male C57B16/J mice were lavaged with 5 ml PBS-2 mM EDTA. Cells were centrifuged and resuspended in RPMI supplemented with 0.5% BSA and 25 mM Hepes. Cells (0.5×10^6) were allowed to migrate towards chemoattractant (C140, C17m or C17m+C140) in the bottom well over 4 h. Filters were fixed in 4% formalin, then nuclei were stained with DAPI and visualised. Serum free media was used as a negative control (−/−). Cells were preincubated with Pertussis toxin (PTX) for 30 mins before the chemotaxis assay. The bar graphs in FIG. 11 show the mean Migration Index±SEM for each treatment group. Each bar represents at least triplicate wells and at least 3 pictures taken per treatment. p<0.001 ***; p<0.01 **; p<0.05 * relative to SFM treated wells unless otherwise stated.
Cell migration was assessed by use of transwell membranes (ChemoTX, 6-mm diameter, 8-μm pore size). Briefly, BioGEL-elicited cells were harvested and placed on transwell membranes (250 000 cells/membrane in RPMI supplemented with 25 mM Hepes and 0.1% bovine serum albumin. Cells were allowed to migrate toward Chemerin peptides (1 pM-100 nM) for 4 h. Signal transduction via G protein-coupled receptors was blocked by preincubating cells with pertussis toxin (PTX, 200 ng/ml, Sigma-Aldrich) for 30 mins before placing cells on transwell membranes. Migrated cells on the underside of membranes were fixed (3% formaldehyde) and stained with DAPI. Migration was quantified as total pixel count of DAPI stained nuclei under the confocal microscope (2 photos/membrane and a minimum of 3 replicate wells per treatment). Images were analyzed using Metamorph Offline software to determine percentage threshold areas (TA) occupied by migrated cells. Migration indices were obtained by dividing treatment TA by serum-free media TA. For secondary chemotaxis assays ChemoTx 3-mm diameter, 8-μm pore membranes were used with 50 000 cells/membrane.

[4] = C13m 100 pM, C15m 1 pM, C17m 1 pM, pre-treatment 1 h then LPS/IFNγ 15 h

Compound	Percentage inhibition of LPS/IFNγ-induced inflammatory cytokine expression: RANTES [2]	Percentage inhibition of LPS/IFNγ-induced inflammatory cytokine expression: TNFα [2]	Anti-inflammatory activity in the MΦ activation assay [2]	Effect of protease inhibitor on chemerin-mediated suppression of MΦ activation (FIG. 1F) [2]	Macrophage chemotactic activity [3]	further results
CSCC[C@H](NC=O)C(=O)N[C@@H](CC(C)C)C(=O)N[C@@H](Cc1ccccc1)C(=O)O [fMLP, formyl-Methionyl-Leucyl-Phenylalanine]						Potency of comparison mediators [1]: 10^−11 M
KPECTIKPNGRRRKCLACIK (listed as Mus sp.) [M20, midstream peptide K86-K105]	0%	0%	devoid of anti-inflammatory activity			
ELSETQRRSLQVALEEFHK (listed as Mus sp.) [N19, N-terminal peptide E23-K41]	0%	0%	devoid of anti-inflammatory activity			
CC(C)CC(=O)N[C@H](C(=O)N[C@H](C(=O)N[C@@H](CC(C)C)[C@@H](O)CC(=O)N[C@@H](C)C(=O)N[C@@H](CC(C)C)[C@@H](O)CC(=O)O)C(C)C)C(C)C [Pepstatin A, reference compound] (Isovaleryl-VV[Sta]A[Sta]-OH)				exerted no effect		
CCCC[C@@H](C=O)NC(=O)[C@H](CC(C)C)NC(=O)OCc1ccccc1 [calpeptin, reference compound]				dependent upon calpains		
FSRALRTK (listed as Mus sp.) [C8, 8 aa peptide removed during prochemerin cleavage, reference compound]	0%	0%	no detectable anti-inflammatory activity		incapable of inducing MΦ migration	
O=C(NC(Cc1ccccc1)C(=O)NC(Cc1ccccc1)C(=O)CF)OCc1ccccc1 (stereo not drawn) [Z-FF-FMK, reference compound] (Cbz-Phe-Phe-CH2F; configuration not given here)				independent of cathepsin L		
CC(C)C[C@H](NC(=O)[C@H](Cc1ccccc1)NC(=O)OCc1ccccc1)C(=O)C=O [Z-FL-COCHO, reference compound]				dependent upon calpains and cathepsin S		
CCCCC/C=C\C[C@@H](O)/C=C/C=C/C=C\[C@@H](O)CCCC(=O)O [LTB4, leukotriene B4]						Potency of comparison mediators [1]: 10^−11 M
AQAGEDPHGYFLPGQFAFS (listed as Mus sp.) [C19]	41%	21%			no chemotactic activity	Optimal dose (maximal response) for suppression of LPS/IFNγ-induced cytokine expression [2]: 100 pM
RALRTK (listed as Mus sp.) [C6, 6 aa peptide removed during prochemerin cleavage, reference compound]	0%	0%	no detectable anti-inflammatory activity		incapable of inducing MΦ migration	
PHGYFLPGQFA (listed as Mus sp.) [C11]	0%	0%	devoid of anti-inflammatory activity		little chemotactic activity	Concentration of maximal macrophage migration [3]: 10 nM
TNFα						Potency of comparison mediators [1]: 10^−11 M
PHGYFLPGQFAFS (listed as Mus sp.) [C13]	32%	10%			little chemotactic activity	Suppression of LPS/IFNγ-induced RANTES secretion (FIG. 2B) [2, 4]: 32%; Suppression of LPS/IFNγ-induced TNFα expression (FIG. 2B) [2, 4]: 10%; Optimal dose (maximal response) for suppression of LPS/IFNγ-induced cytokine expression [2]: 100 pM; Concentration of maximal macrophage migration [3]: 10 nM
Cl.NCCc1ccc(S(=O)(=O)F)cc1 [Pefabloc, reference compound]				exerted no effect		
CC(=O)N[C@@H](CC(C)C)C(=O)N[C@@H](CC(C)C)C(=O)N[C@H](C=O)CCCNC(=N)N [Leupeptin, reference compound]				abolished its anti-inflammatory effects		
